{
  "source": "patent US20070190187A1",
  "about": "“FORMULATION FOR ENHANCED DELIVERY OF PHENETHYLAMINE” (priority 2006, published 2007)",
  "test": "co-administration of phenylethylamine with moiety/moieties that inhibit the enzyme MAO-B",
  "format": "in vivo",
  "settings": "co-administered with a moiety/moieties that inhibited the effects of the enzyme MAO-B",
  "source_text": "Therefore, the combination of phenylethylamine or derivative thereof and the MAO-B enzyme inhibitor may be formulated as a dietary supplement, other foodstuff, a pharmaceutical, a topical or transdermal compound or a vaccine. The Dietary Supplement Health and Education Act of 1994, commonly referred to as DSHEA, defines “dietary supplement” as any product (except tobacco) that contains at least one of the following: (1) a vitamin, (2) a mineral, (3) an herb or botanical, (4) an amino acid, (5) a dietary substance “for use to supplement the diet by increasing total dietary intake,” or (6) any concentrate, metabolite, constituent, extract, or combination of any of the aforementioned ingredients. Examples of dietary supplements include, but are not limited to nutritional products; sports performance products, including ergogenic sports performing products; weight loss products; and meal replacement products. Dietary supplements may exist in various forms, including, but not limited to tablets, capsules, caplets, powders, drinks including shakes, and solid food items including snack bars, etc. For purposes of the present invention, a foodstuff is defined as a substance that can be used or prepared for use as food or extracted from food.",
  "data": [
    {"smiles": "NCCc1ccccc1", "note": "[phenylethylamine, Phenethylamine]", "values": [
      {"measurement": "amount of phenethylamine absorbed into the bloodstream, cells and tissue", "result": "increased amount"},
      {"measurement": "amount of phenethylamine allowed to reach the brain and period of time per dose administered before it is metabolized", "result": "a greater amount of phenethylamine or a derivative thereof, is allowed to reach the brain for a greater period of time"}
    ]}
  ]
}
